Source: patent US20260008758A1, “LINEAR DIPEPTIDYL PEPTIDASE 1 INHIBITORS AND USES THEREOF” (Insmed Incorporated, priority 2024, published 2026)

Key:
human DPP1 enzyme = human DPP1 enzyme (Homo sapiens (Human), UniProt P53634); experiment: Human DPP1 enzyme IC50 assay; format: biochemical; conditions: recombinant human DPP1, H-Gly-Arg-AMC substrate 400 μM
Method in brief: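 Fluorogenic readout (350/450 nm, every 5 min over 90 min, 37°C) of H-Gly-Arg-AMC cleavage at 400 μM final substrate. Compounds met activated DPP1 first for a 10-min 37°C pre-incubation in MES buffer pH 6.0 with DTT, 1% DMSO final. Four-parameter sigmoidal fit gave IC50.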

active mouse DPP1 enzyme = active mouse DPP1 enzyme (Mus musculus (Mouse), UniProt P97821); experiment: Mouse DPP1 enzyme IC50 assay; format: biochemical; conditions: active mouse DPP1, H-Gly-Arg-AMC substrate 400 μM
Chain of active mouse DPP1 enzyme (P97821 25-134): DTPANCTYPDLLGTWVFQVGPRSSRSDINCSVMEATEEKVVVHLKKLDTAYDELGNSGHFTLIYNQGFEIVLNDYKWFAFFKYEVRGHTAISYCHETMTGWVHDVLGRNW
Chain of active mouse DPP1 enzyme (P97821 231-393): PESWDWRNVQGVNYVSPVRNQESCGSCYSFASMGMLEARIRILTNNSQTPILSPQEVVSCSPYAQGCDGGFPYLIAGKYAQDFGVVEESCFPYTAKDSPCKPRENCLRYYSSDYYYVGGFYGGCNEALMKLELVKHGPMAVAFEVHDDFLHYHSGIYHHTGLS
Chain of active mouse DPP1 enzyme (P97821 394-462): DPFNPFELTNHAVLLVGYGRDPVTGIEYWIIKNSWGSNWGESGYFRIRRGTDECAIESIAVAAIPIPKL
Experimental: 25 μL of compound in Assay Buffer plus 5% DMSO was first added to 50 μL of active mouse DPP1 enzyme at a concentration of 62.5 pg/μL and allowed to pre-incubate for 10 minutes at 37° C. after which 50 μL of 1000 μM H-Gly-Arg-AMC substrate (Bachem; St. Torrance, CA) was added, giving final substrate concentration of 400 μM and a final DMSO concentration of 1%. Substrate cleavage was measured for 90 minutes at 37° C., with fluorescence at Excitation/Emission 350/450 nm measured every 5 minutes. DPP1 concentration was interpolated based on its activity relative to a standard curve of recombinant active mouse DPP1 enzyme. IC50 values for each compound were calculated via the XLFit (IDBS Version 5.3.1.3) Add-On to Microsoft Excel using the four parameter fit equation y=(A+((B-A)/(1+((C/x)^D)))), which appears as equation number 205 (4 Parameter Logistic Model or Sigmoidal Dose-Response Model) in XLFit. Default constraints were used for each Parameter.

DPP1 in HL-60 cells = DPP1 in HL-60 cells (Homo sapiens (Human), UniProt P53634); experiment: DPP1 Cell IC50 assay; format: cell-based; conditions: H-Gly-Phe-AFC substrate, 60 min pre-incubation
Chain of DPP1 in HL-60 cells (P53634 25-134): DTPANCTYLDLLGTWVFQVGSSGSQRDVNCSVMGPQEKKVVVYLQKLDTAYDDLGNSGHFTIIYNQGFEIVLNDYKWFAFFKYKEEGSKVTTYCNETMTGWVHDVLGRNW
Chain of DPP1 in HL-60 cells (P53634 231-394): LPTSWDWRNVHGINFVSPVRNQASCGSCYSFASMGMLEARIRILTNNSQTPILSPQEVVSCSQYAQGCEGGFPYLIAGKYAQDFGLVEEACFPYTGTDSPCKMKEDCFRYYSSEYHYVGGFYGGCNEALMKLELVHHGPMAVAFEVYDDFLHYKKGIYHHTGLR
Chain of DPP1 in HL-60 cells (P53634 395-463): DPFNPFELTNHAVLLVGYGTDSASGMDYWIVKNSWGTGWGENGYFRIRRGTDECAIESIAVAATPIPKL
Method in brief: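 HL-60 cells (5×10^5 live cells/mL in PBS) were pre-incubated with compound in 0.5% DMSO for 60 min at 37 °C, 5% CO2, with shaking, then given 500 μM H-Gly-Phe-AFC solution for 30 min. Fluorescence was read at 400/505 nm. % inhibition was taken against vehicle wells, and IC50 came from a four-parameter logistic fit.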

Chain of human DPP1 enzyme (P53634 25-134): as the sequence (P53634 25-134) above
Chain of human DPP1 enzyme (P53634 231-394): as the sequence (P53634 231-394) above
Chain of human DPP1 enzyme (P53634 395-463): as the sequence (P53634 395-463) above

Row | Compound | IC50 (human DPP1 enzyme) [nM] | IC50 (active mouse DPP1 enzyme) [nM] | IC50 (DPP1 in HL-60 cells) [nM]
1 | CN[C@H](C)C(=O)N[C@H](C#N)Cc1ccc(-c2ccc3oc(=O)n(C)c3c2)cc1 [Compound 152, (R)—N—((S)-1-cyano-2-(4-(3-methyl-2-oxo-2,3-dihydrobenzo[d]oxazol-5-yl)phenyl)ethyl)-2-(methylamino)propanamide] | ≥ 15 | ≥ 20 | –
2 | Cn1c(=O)oc2ccc(-c3ccc(C[C@@H](C#N)NC(=O)CCC(N)=O)cc3)cc21 [Compound 153] | ≥ 15 | ≥ 20 | –
3 | CN[C@@H](C)C(=O)N[C@H](C#N)Cc1ccc(-c2ccc3oc(=O)n(C)c3c2)cc1 [Compound 154] | ≥ 15 | ≥ 20 | –
4 | Cn1c(=O)oc2ccc(-c3ccc(C[C@@H](C#N)NC(=O)C(C)(C)CN)cc3)cc21 [Compound 155] | ≥ 15 | ≥ 20 | –
5 | CNCCC(=O)N[C@H](C#N)Cc1ccc(-c2ccc3oc(=O)n(C)c3c2)cc1 [Compound 156] | ≥ 15 | ≥ 20 | –
6 | Cn1c(=O)oc2ccc(-c3ccc(C[C@@H](C#N)NC(=O)CCN)cc3)cc21 [Compound 157] | ≥ 15 | ≥ 20 | –
7 | CN(C)CC(=O)N[C@H](C#N)Cc1ccc(-c2ccc3oc(=O)n(C)c3c2)cc1 [Compound 158] | ≥ 15 | ≥ 20 | –
8 | Cn1c(=O)oc2ccc(-c3ccc(C[C@@H](C#N)NC(=O)CC(N)C(N)=O)cc3)cc21 (stereo partly shown) [Compound 159] | ≥ 15 | ≥ 20 | –
9 | CC(N)CC(=O)N[C@H](C#N)Cc1ccc(-c2ccc3oc(=O)n(C)c3c2)cc1 (stereo partly shown) [Compound 160] | ≥ 15 | ≥ 20 | –
10 | CC(CN)C(=O)N[C@H](C#N)Cc1ccc(-c2ccc3oc(=O)n(C)c3c2)cc1 (stereo partly shown) [Compound 161] | ≥ 15 | ≥ 20 | –
11 | CCC(N)CC(=O)N[C@H](C#N)Cc1ccc(-c2ccc3oc(=O)n(C)c3c2)cc1 (stereo partly shown) [Compound 162] | ≥ 15 | ≥ 20 | –
12 | C=CC[C@H](N)CC(=O)N[C@H](C#N)Cc1ccc(-c2ccc3oc(=O)n(C)c3c2)cc1 [Compound 163] | ≥ 15 | ≥ 20 | –
13 | Cn1c(=O)oc2ccc(-c3ccc(C[C@@H](C#N)NC(=O)CC(N)C(F)F)cc3)cc21 (stereo partly shown) [Compound 166] | ≥ 15 | ≥ 20 | –
14 | Cn1c(=O)oc2ccc(-c3ccc(C[C@@H](C#N)NC(=O)C[C@@H](N)Cc4cccs4)cc3)cc21 [Compound 181] | ≥ 15 | ≥ 20 | –
15 | Cn1c(=O)oc2ccc(-c3ccc(C[C@@H](C#N)NC(=O)CC(N)CCc4ccccc4)cc3)cc21 (stereo partly shown) [Compound 183] | ≥ 15 | ≥ 20 | –
16 | Cn1c(=O)oc2ccc(-c3ccc(C[C@@H](C#N)NC(=O)CC(N)Cc4ccccc4)cc3)cc21 (stereo partly drawn) [Compound 184, 3-amino-N-[(1S)-1-cyano-2-[4-(3-methyl-2-oxo-2,3-dihydro-1,3-benzoxazol-5-yl)phenyl]ethyl]-4-phenylbutanamide] | ≥ 15 | ≥ 20 | –
17 | Cn1c(=O)oc2ccc(-c3ccc(C[C@@H](C#N)NC(=O)CC(N)Cc4ccsc4)cc3)cc21 (stereo partly shown) [Compound 185] | ≥ 15 | ≥ 20 | –
18 | Cn1c(=O)oc2ccc(-c3ccc(C[C@@H](C#N)NC(=O)C[C@@H](N)Cc4ccccc4)cc3)cc21 [Compound 186] | ≥ 15 | ≥ 20 | –

Row | Compound | IC50 (human DPP1 enzyme) [nM] | IC50 (active mouse DPP1 enzyme) [nM] | IC50 (DPP1 in HL-60 cells) [nM]
19 | Cn1c(=O)oc2ccc(-c3ccc(C[C@@H](C#N)NC(=O)C[C@H](N)Cc4ccccc4)cc3)cc21 [Compound 187] | ≥ 15 | ≥ 20 | –
20 | Cn1c(=O)oc2ccc(-c3ccc(C[C@@H](C#N)NC(=O)CCNC(=O)c4cccs4)cc3)cc21 [Compound 238, N-[(1S)-1-cyano-2-[4-(3-methyl-2-oxo-1,3-benzoxazol-5-yl)phenyl]ethyl]-3-(thiophen-2-ylformamido)propanamide] | ≥ 15 | ≥ 20 | –
21 | Cn1c(=O)oc2ccc(-c3ccc(C[C@@H](C#N)NC(=O)CNC(=O)c4cccs4)cc3)cc21 [Compound 239, N-[(1S)-1-cyano-2-[4-(3-methyl-2-oxo-1,3-benzoxazol-5-yl)phenyl]ethyl]-2-(thiophen-2-ylformamido)acetamide] | – | ≥ 20 | –
22 | Cn1c(=O)oc2ccc(-c3ccc(C[C@@H](C#N)NC(=O)CNC(=O)c4ccco4)cc3)cc21 [Compound 240, N-[(1S)-1-cyano-2-[4-(3-methyl-2-oxo-1,3-benzoxazol-5-yl)phenyl]ethyl]-2-(furan-2-ylformamido)acetamide] | ≥ 15 | ≥ 20 | –
23 | Cn1c(=O)oc2ccc(-c3ccc(C[C@@H](C#N)NC(=O)CCC#N)cc3)cc21 [Compound 241] | ≥ 15 | ≥ 20 | –
24 | CC(O)C(=O)N[C@H](C#N)Cc1ccc(-c2ccc3oc(=O)n(C)c3c2)cc1 (stereo partly shown) [Compound 242] | ≥ 15 | ≥ 20 | –
25 | Cn1c(=O)oc2ccc(-c3ccc(C[C@@H](C#N)NC(=O)CCOC(=O)c4cccs4)cc3)cc21 [Compound 244, 2-{[(1S)-1-cyano-2-[4-(3-methyl-2-oxo-1,3-benzoxazol-5-yl)phenyl]ethyl]carbamoyl}ethyl thiophene-2-carboxylate] | – | ≥ 20 | –
26 | Cn1c(=O)oc2ccc(-c3ccc(C[C@@H](C#N)NC(=O)COC(=O)c4cccs4)cc3)cc21 [Compound 245, (S)-2-((1-cyano-2-(4-(3-methyl-2-oxo-2,3-dihydrobenzo[d]oxazol-5-yl)phenyl)ethyl)amino)-2-oxoethyl thiophene-2-carboxylate] | – | ≥ 20 | –
27 | CN(C)C[C@H](F)C(=O)N[C@H](C#N)Cc1ccc(-c2ccc3oc(=O)n(C)c3c2)cc1F [Compound 278, (2S)—N-[(1S)-1-cyano-2-[2-fluoro-4-(3-methyl-2-oxo-1,3-benzoxazol-5-yl)phenyl]ethyl]-3-(dimethylamino)-2-fluoropropanamide] | ≥ 15 | – | ≥ 2.5
28 | CN(C)C[C@H](O)C(=O)N[C@H](C#N)Cc1ccc(-c2ccc3c(c2)C(C2CCN(C4COC4)CC2)OC3)cc1 (stereo partly drawn) [Compound 281, (2S)—N-[(1S)-1-cyano-2-(4-{3-[1-(oxetan-3-yl)piperidin-4-yl]-1,3-dihydro-2-benzofuran-5-yl}phenyl)ethyl]-3-(dimethylamino)-2-hydroxypropanamide] | ≥ 15 | – | ≥ 2.5
29 | CN(C)C[C@H](O)C(=O)N[C@H](C#N)Cc1ccc(-c2ccc3cnn(C4CCN(C5COC5)CC4)c3c2)cc1 [Compound 282, (2S)—N-[(1S)-1-cyano-2-(4-{1-[1-(oxetan-3-yl)piperidin-4-yl]indazol-6-yl}phenyl)ethyl]-3-(dimethylamino)-2-hydroxypropanamide] | ≥ 15 | – | ≥ 2.5
30 | CN(C)C[C@H](O)C(=O)N[C@H](C#N)Cc1ccc(-c2ccc3c(c2)C2(CCN(C4COC4)CC2)OC3)cc1F [Compound 283, (2S)—N-[(1S)-1-cyano-2-{2-fluoro-4-[1′-(oxetan-3-yl)-3H-spiro[2-benzofuran-1,4′-piperidin]-6-yl]phenyl}ethyl]-3-(dimethylamino)-2-hydroxypropanamide] | 5 to 15 | – | ≥ 2.5
31 | CO[C@@H](CN(C)C)C(=O)N[C@H](C#N)Cc1ccc(-c2ccc3c(c2)C2(CCN(C4COC4)CC2)OC3)cc1F [Compound 284, (2S)—N-[(1S)-1-cyano-2-{2-fluoro-4-[1′-(oxetan-3-yl)-3H-spiro[2-benzofuran-1,4′-piperidin]-6-yl]phenyl}ethyl]-3-(dimethylamino)-2-methoxypropanamide] | 5 to 15 | – | ≥ 2.5
32 | CN(C)C[C@H](O)C(=O)N[C@H](C#N)Cc1ccc(-c2ccc3cnn(C4CCN(C)CC4)c3c2)cc1F [Compound 285, (S)—N—((S)-1-cyano-2-(2-fluoro-4-(1-(1-methylpiperidin-4-yl)-1H-indazol-6-yl)phenyl)ethyl)-3-(dimethylamino)-2-hydroxypropanamide] | 5 to 15 | – | ≥ 2.5
33 | CO[C@@H](CN(C)C)C(=O)N[C@H](C#N)Cc1ccc(-c2ccc3cnn(C4CCN(C)CC4)c3c2)cc1F [Compound 286, (S)—N—((S)-1-cyano-2-(2-fluoro-4-(1-(1-methylpiperidin-4-yl)-1H-indazol-6-yl)phenyl)ethyl)-3-(dimethylamino)-2-methoxypropanamide] | 5 to 15 | – | ≥ 2.5
34 | CN(C)C[C@H](O)C(=O)N[C@H](C#N)Cc1ccc(-c2ccc3cnn(C4CCN(C5COC5)CC4)c3c2)cc1F [Compound 287, (2S)—N-[(1S)-1-cyano-2-(2-fluoro-4-{1-[1-(oxetan-3-yl)piperidin-4-yl]indazol-6-yl}phenyl)ethyl]-3-(dimethylamino)-2-hydroxypropanamide] | 5 to 15 | – | ≥ 2.5
35 | CO[C@@H](CN(C)C)C(=O)N[C@H](C#N)Cc1ccc(-c2ccc3cnn(C4CCN(C5COC5)CC4)c3c2)cc1F [Compound 288, (2S)—N-[(1S)-1-cyano-2-(2-fluoro-4-{1-[1-(oxetan-3-yl)piperidin-4-yl]indazol-6-yl}phenyl)ethyl]-3-(dimethylamino)-2-methoxypropanamide] | 5 to 15 | – | 1 to 2.5
